In the supplement of paper PMC3974653:
Structures can show the parent of a compound that is named as a salt.

System: MTT (mouse pheochromocytoma)
Assay: IC50 of cell viability (ATP content)
Conditions: (24 or 48 h)
Summary of the method: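 MTT mouse pheochromocytoma cells (5 µl of 200,000 cells/ml per well, white 1536-well plates, DMEM with 5% FBS and 1% horse serum) were cultured overnight at 37°C, 5% CO2. They then received 23 nl library compound in DMSO by pintool at 8 concentrations (final 0.5 nM to 46 µM) for 24 or 48 hrs. CellTiter-Glo ATP luminescence was read after 15 minutes. Signals were normalised to positive-control (100% inhibition) and DMSO (0%) wells, and IC50 came from a four-parameter logistic fit.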

| Structure (SMILES) | IC50 of cell viability [µM] |
| --- | --- |
| CC[C@@H]1[C@@H]2C[C@H]3[C@H]4N(C)c5ccccc5[C@@]45C[C@H]([C@H]2[C@H]5O)[N@@]3[C@H]1O [Ajmaline] | > 46 |
| C=CCN1C(=O)C(CC(C)C)NC1=S (stereo unspecified) [Albutoin] | > 46 |
| NCCCC(O)(P(=O)(O)O)P(=O)(O)O [Alendronate sodium] | > 46 |
| CC(=O)OCC(=O)[C@@H]1CC[C@@H]2[C@H]3CC[C@H]4C[C@@H](O)CC[C@]4(C)[C@@H]3C(=O)C[C@]21C [Alfadolone acetate] | > 46 |
| C=CCN(C1=NCCN1)c1c(Cl)cccc1Cl [Alinidine] | > 46 |
| COCCCOc1cc(C[C@@H](C[C@H](N)[C@@H](O)C[C@H](C(=O)NCC(C)(C)C(N)=O)C(C)C)C(C)C)ccc1OC [Aliskiren] | > 46 |
| NC(=O)N[C@H]1NC(=O)NC1=O [Allantoin] | > 46 |
| CC(C)=CC1C(C(=O)OC\2CC(=O)\C(=C2C)CC=C)C1(C)C (stereo unspecified) [Allethrin] | > 46 |
| COC(=O)C1C(OC(=O)c2ccccc2)CC2CCC1N2C (stereo unspecified) [Allococaine] | > 46 |
| Oc1ncnc2[nH]ncc12 [Allopurinol] | > 46 |
| C=CCN=C=S [Allyl isothiocyanate] | > 46 |
| C=CC[C@]1(O)CCC2C3CCC4=CCCCC4C3CCC21C (stereo partly specified) [Allylestrenol] | > 46 |
| C=CCNC(N)=S [Allylthiourea] | > 46 |
| Cc1cn([C@H]2CC(F)[C@@H](CO)O2)c(=O)[nH]c1=O (stereo partly specified) [Alovudine] | > 46 |
| Cc1c(C)c2c(c(C)c1O)CC[C@@](C)(CCC[C@H](C)CCC[C@H](C)CCCC(C)C)O2 [Alpha-Vitamin E] | > 46 |
| CCCN(CCC)C(=O)Cc1c(-c2ccc(Cl)cc2)nc2ccc(Cl)cn12 [Alpidem] | > 46 |
| C=CCC1(O)CCC2C3CCC4=CC(=O)CCC4=C3C=CC21C (stereo unspecified) [Altrenogest] | > 46 |
| CN(C)c1nc(N(C)C)nc(N(C)C)n1 [Altretamine] | > 46 |
| CCCCCCCCCCCCCCCCCC(=O)[O][Al]([OH])[OH] [Aluminum monostearate] | > 46 |

| Structure (SMILES) | IC50 of cell viability [µM] |
| --- | --- |
| CC(=O)[O][Al]([OH])[O]C(C)=O [Aluminum subacetate] | > 46 |
| CCN(CCCc1ccccc1)CCCc1ccccc1.O=C(O)CC(O)(CC(=O)O)C(=O)O [Alverine citrate salt] | > 46 |
| NCCCNCCSP(=O)(O)O [Amifostine] | > 46 |
| O=C(O)CCCCCCNC1c2ccccc2CCc2ccccc21 [Amineptine] | > 46 |
| NCCCCCC(=O)O [Aminocaproic acid] | > 46 |
| Nc1ccc(C(=O)NCC(=O)O)cc1 [Aminohippuric acid] | > 46 |
| Nc1cc(-c2ccncc2)c[nH]c1=O [Amrinone] | > 46 |
| O=C1CN2Cc3c(ccc(Cl)c3Cl)NC2=N1 [Anagrelide hydrochloride] | > 46 |
| CC(C)(C#N)c1cc(Cn2cncn2)cc(C(C)(C)C#N)c1 [Anastrozole] | > 46 |
| C/C=C/c1ccc(OC)cc1 [Anethole] | > 46 |
| CNC(=O)Oc1ccccc1C(=O)Nc1ccccc1 [Anilamate] | > 46 |
| Nc1ccccc1.O=[N+]([O-])O [Anilinium nitrate] | > 46 |
| O=C1c2ccccc2C(=O)c2ccccc21 [Anthraquinone] | > 46 |
| CC1=NN=C2C\N=C(C3=CC=CC=C3Cl)/C4=C(SC(=C4)CCC(=O)N5CCOCC5)[N]12 [Apafant] | > 46 |
| CN[C@H]1[C@H](O[C@@H]2O[C@@H](CO)[C@H](N)[C@H](O)[C@@H]2O)O[C@H]2C[C@@H](N)[C@@H](O[C@H]3[C@H](O)[C@H](O)[C@H](N)C[C@@H]3N)O[C@@H]2[C@H]1O [Apramycin] | > 46 |
| Nc1ccc([As](=O)(O)O)cc1 [Arsanilic acid] | > 46 |
| CCCN[C@@H](C)C(=O)Nc1c(C)csc1C(=O)OC [Articaine hydrochloride] | > 46 |
| CCCCCCCCCCCCCCCC(=O)OCC(O)C1OC(=O)C(O)=C1O (stereo unspecified) [Ascorbyl palmitate] | > 46 |

Now from value to compound:

| IC50 of cell viability [µM] | Structure (SMILES) |
| --- | --- |
| > 46 | C=CCOc1ccc(CC(=O)O)cc1Cl [Alclofenac] |
| > 46 | CCC(=O)OCC(=O)[C@@]1(OC(=O)CC)[C@H](C)C[C@@H]2[C@@H]3[C@H](Cl)C\C4=C\C(=O)\C=C/[C@@]4(C)[C@H]3[C@@H](O)C[C@@]12C [Alclometasone dipropionate] |
| > 46 | C=CC[N@@H+]1/C(=C/CO)[C@@H]2C[C@H]3[C@H]1CC[C@]31c3ccccc3N3/C=C4/[C@@H]5C[C@@H]6[C@H](CC[C@@]67c6ccccc6N(/C=C\2[C@H]31)[C@@H]47)[N@@H+](CC=C)/C5=C\CO [Alcuronium chloride] |
| > 46 | COc1cc2nc(N(C)CCCNC(=O)[C@H]3CCCO3)nc(N)c2cc1OC [Alfuzosin hydrochloride] |
| > 46 | C=CCc1cc(OC)c(O)c(C(=O)NCCO)c1 [Alibendol] |
| > 46 | CCCCC[C@H](O)/C=C\[C@@H]1[C@H](O)CC(=O)[C@@H]1CCCCCCC(=O)O [Alprostadil] |
| > 46 | O=C(O)CN1C(=O)c2cccc3cccc(c23)C1=O [Alrestatin] |
| > 46 | O=C(c1ccc(F)cc1)C1CCN(CCn2c(=S)[nH]c3ccccc3c2=O)CC1 [Altanserin hydrochloride] |
| > 46 | Nc1ncnc(Nc2ccccc2)n1 [Amanozine] |
| > 46 | CC1(C)SC2[C@@H](/N=C/N3CCCCCC3)C(=O)N2[C@H]1C(=O)O (stereo partly specified) [Amdinocillin] |
| > 46 | Nc1c(CC(=O)[O-])cccc1C(=O)c1ccccc1 [Amfenac Sodium] |
| > 46 | NCC[C@H](O)C(=O)N[C@@H]1C[C@H](N)[C@@H](O[C@H]2O[C@H](CN)[C@@H](O)[C@H](O)[C@H]2O)[C@H](O)[C@H]1O[C@H]1O[C@H](CO)[C@@H](O)[C@H](N)[C@H]1O [Amikacin sulfate] |
| > 46 | CCCCc1oc2ccccc2c1C(=O)c1cc(I)c(OCCN(CC)CC)c(I)c1 [Amiodarone hydrochloride] |
| > 46 | CCN1CCCC1CNC(=O)c1cc([S+](=O)([O-])CC)c(N)cc1OC (stereo unspecified) [Amisulpride] |
| > 46 | CN(C)CCC=C1c2ccccc2CCc2ccccc21 [Amitriptyline] |
| > 46 | CCOC(=O)C/1=C(COCCN)/N\C(=C(C1C2=C(Cl)C=CC=C2)\C(=O)OC)C (stereo unspecified) [Amlodipine besylate] |
| > 46 | CCN(CC)Cc1cc(Nc2ccnc3cc(Cl)ccc23)ccc1O.Cl.Cl.O.O [Amodiaquin dihydrochloride dihydrate] |

| IC50 of cell viability [µM] | Structure (SMILES) |
| --- | --- |
| > 46 | COc1cc(C(=O)OC(COCCC(C)C)CN2CCOCC2)cc(OC)c1OC (stereo unspecified) [Amoproxan] |
| > 46 | CCNC(=O)N1CCN(CCCC(c2ccc(F)cc2)c2ccc(F)cc2)CC1.Cl [Amperozide hydrochloride] |
| > 46 | C[C@@H]1[C@H](O)[C@@H](C)/C=C/C=C/C=C/C=C/C=C/C=C/C=C/[C@H](O[C@@H]2O[C@H](C)[C@@H](O)[C@H](N)[C@@H]2O)C[C@@H]2O[C@](O)(C[C@@H](O)C[C@@H](O)[C@H](O)CC[C@@H](O)C[C@@H](O)CC(=O)O[C@H]1C)C[C@H](O)[C@H]2C(=O)O [Amphotericin B] |
| > 46 | CC1(C)SC2C(NC(=O)C(N)c3ccccc3)C(=O)N2C1C(=O)O (stereo unspecified) [Ampicillin A] |
| > 46 | CC(C)CN(C[C@@H](O)[C@H](Cc1ccccc1)NC(=O)O[C@H]1CCOC1)[S+](=O)([O-])c1ccc(N)cc1 [Amprenavir] |
| > 46 | CCCc1ncc(C[n+]2ccccc2C)c(N)n1.Cl.[Cl-] [Amprolium hydrochloride] |
| > 46 | CN1N(C2=CC=CC=C2)C(=O)C(=C1/C)/N [Ampyrone] |
| > 46 | COc1cc(N[S+](C)(=O)[O-])ccc1Nc1c2ccccc2nc2ccccc12.Cl [Amsacrine hydrochloride] |
| > 46 | CC[C@](C)(CN(C)C)OC(=O)c1ccccc1 [Amyleine hydrochloride] |
| > 46 | CCCC(CCC)C(=O)OC1C[C@H]2CC[C@@H](C1)[N+]2(C)C (stereo partly specified) [Anisotropine methyl bromide] |
| > 46 | C1C\N=C(\CN(CC2=CC=CC=C2)C3=CC=CC=C3)N1 [Antazoline hydrochloride] |
| > 46 | CCCC(=O)O[C@@]1([C@@H](C)C[C@H]2[C@@H]3CCC\4=C\C(=O)\C=C/[C@@]4(C)[C@@]3(F)[C@H](O)C[C@]12C)C(=O)COC(=O)CC [Antebate] |
| > 46 | O=C1c2c(O)cccc2Cc2cccc(O)c21 [Anthralin] |
| > 46 | C[C@@H](O[C@@H]1OCCN(Cc2nc(=O)[nH][nH]2)[C@@H]1c1ccc(F)cc1)c1cc(C(F)(F)F)cc(C(F)(F)F)c1 [Aprepitant] |
| > 46 | COC(=O)C1=C(C)NC(C)=C(C(=O)OCC(C)=O)C1c1ccccc1[N+](=O)[O-] (stereo unspecified) [Aranidipine] |
| > 46 | N=C(N)NCCC[C@H](NC(=O)[C@@H]1CCCN1C(=O)[C@@H]1CSSC[C@H](N)C(=O)N[C@@H](Cc2ccc(O)cc2)C(=O)N[C@@H](Cc2ccccc2)C(=O)N[C@@H](CCC(N)=O)C(=O)N[C@@H](CC(N)=O)C(=O)N1)C(=O)NCC(N)=O [Argipressin acetate] |
| > 46 | CO[C@H]1O[C@@H]2O[C@@]3(C)CC[C@H]4[C@H](C)CC[C@@H]([C@H]1C)[C@@]24OO3 [Artemetero] |
